Tests used:
[1] = molecular target: IGF-1R (Homo sapiens, UniProt P08069); experiment: IGFR1 activity assay (ELISA); type: biochemical; settings: for inhibition at 30 µM: read-out: IGF-1R, PCT INH (30 μM), ELISA
Method: The disclosed compounds were assayed for their ability to inhibit insulin-like growth factor receptor-1 (IGFR1). Nunc Maxisorb plates were coated with streptavidin by overnight incubation with 100 μL per well of 1 μg/ml Streptavidin in DPBS. Prior to the start of the experiment, the plates were washed with TBST (3×200 μL) and blocked for at least 1 hour by adding 150 μL of 5% BSA/TBST. The plates were washed with TBST (3×200 μL/well) and left to dry immediately before the capture step.
The disclosed test articles and controls (Staurosporine) were prepared using the following assay buffer at 3× desired final concentration (50 mM Tris-HCl, 0.02 mg/ml BSA, 10 mM MgCl2, 0.1 mM Na3VO4, 1 mM EGTA, 12.5 μM ATP, 0.01% NP-40, 1 mM DTT in 10% glycerol/water). 20 μL of the test compounds (or control), 20 μL IGF1R (0.33 ng/μL final concentration), and 20 μL of Pyk-2 (0.05 ng/μL final concentration) were rapidly added to the reaction plate. The plate was incubated at room temperature for one hour.
50 μL was transferred from the reaction plate to the streptavidin coated plate. The capture plate was incubated at room temperature for 30 minutes, then washed with TBST three times. 100 μL/well of Cell Signaling anti-phospho tyrosine was added to the capture plate at a dilution of 1:3000 in 2% BSA/TBST. The plate was incubated for one hour at room temperature then washed 6× with TBST. 100 μL/well of alkaline phosphatase tagged goat anti mouse antibody was added to the capture plate at a dilution of 1:4000 in 2% BSA/TBST. The plate was incubated for one hour at room temperature then washed with TBST six times.
The fluorescent readout is initiated by the addition of 100 μL/well of Attophos reagent (6 mg/10 mL). The reading is done on the Perkin Elmer Envision system.

[2] = system: KATO III; experiment: MTS assay, KATO III cells; type: cell-based; settings: 72 hours; for inhibition at 10 µM: Homo sapiens, read-out: KATO III, MTS cell kill % inhibition
Method: (§1) Cells were maintained at 37° C., 5% CO2 in DMEM media supplemented with 1% fetal bovine serum, penicillin/streptomycin and fungizone (Invitrogen). Cells were seeded into 96-well tissue culture plates at 3000 per well and cultured at 37° C. for 18 hours. Test compounds were dissolved and diluted to 300× in DMSO then diluted 1:40 in DMEM. Cells were incubated with test compounds for 72 hours followed by incubation with tetrazolium compound (3-(4,5-dimethylthiazol-2-yl)-5-(3-carboxymethoxyphenyl)-2-(4-sulfophenyl)-2H-tetrazolium, inner salt; MTS) and the electron coupling reagent, phenazine methosulfate (PMS) for 4 hours. […] The ability of compounds to inhibit cell growth in this assay is correlated with the reduction of dehydrogenase enzyme activity found in metabolically active cells. The measurement of the absorbance of the formazan was assessed using an ENVISION™ (Perkin Elmer) microplate reader at 492 nm. The calculated IC50 value is the concentration of the test compound that causes a 50% decrease in the absorbance.

[3] = system: NCI-H1299; experiment: MTS assay, NCI-H1299 cells; type: cell-based; settings: 72 hours; for inhibition at 10 µM: Homo sapiens, read-out: NCI-H1299, MTS cell kill % inhibition
Method: as §1

[4] = system: DLD-1; experiment: MTS assay, DLD-1 cells; type: cell-based; settings: 72 hours; for inhibition at 10 µM: Homo sapiens, read-out: DLD-1, MTS cell kill % inhibition
Method: as §1

[5] = system: MDA-MB-231; experiment: MTS assay, MDA-MB-231 cells; type: cell-based; settings: 72 hours; for inhibition at 10 µM: Homo sapiens, read-out: MDA-MB-231, MTS cell kill % inhibition
Method: as §1

Sequence of IGF-1R (P08069 31-1367): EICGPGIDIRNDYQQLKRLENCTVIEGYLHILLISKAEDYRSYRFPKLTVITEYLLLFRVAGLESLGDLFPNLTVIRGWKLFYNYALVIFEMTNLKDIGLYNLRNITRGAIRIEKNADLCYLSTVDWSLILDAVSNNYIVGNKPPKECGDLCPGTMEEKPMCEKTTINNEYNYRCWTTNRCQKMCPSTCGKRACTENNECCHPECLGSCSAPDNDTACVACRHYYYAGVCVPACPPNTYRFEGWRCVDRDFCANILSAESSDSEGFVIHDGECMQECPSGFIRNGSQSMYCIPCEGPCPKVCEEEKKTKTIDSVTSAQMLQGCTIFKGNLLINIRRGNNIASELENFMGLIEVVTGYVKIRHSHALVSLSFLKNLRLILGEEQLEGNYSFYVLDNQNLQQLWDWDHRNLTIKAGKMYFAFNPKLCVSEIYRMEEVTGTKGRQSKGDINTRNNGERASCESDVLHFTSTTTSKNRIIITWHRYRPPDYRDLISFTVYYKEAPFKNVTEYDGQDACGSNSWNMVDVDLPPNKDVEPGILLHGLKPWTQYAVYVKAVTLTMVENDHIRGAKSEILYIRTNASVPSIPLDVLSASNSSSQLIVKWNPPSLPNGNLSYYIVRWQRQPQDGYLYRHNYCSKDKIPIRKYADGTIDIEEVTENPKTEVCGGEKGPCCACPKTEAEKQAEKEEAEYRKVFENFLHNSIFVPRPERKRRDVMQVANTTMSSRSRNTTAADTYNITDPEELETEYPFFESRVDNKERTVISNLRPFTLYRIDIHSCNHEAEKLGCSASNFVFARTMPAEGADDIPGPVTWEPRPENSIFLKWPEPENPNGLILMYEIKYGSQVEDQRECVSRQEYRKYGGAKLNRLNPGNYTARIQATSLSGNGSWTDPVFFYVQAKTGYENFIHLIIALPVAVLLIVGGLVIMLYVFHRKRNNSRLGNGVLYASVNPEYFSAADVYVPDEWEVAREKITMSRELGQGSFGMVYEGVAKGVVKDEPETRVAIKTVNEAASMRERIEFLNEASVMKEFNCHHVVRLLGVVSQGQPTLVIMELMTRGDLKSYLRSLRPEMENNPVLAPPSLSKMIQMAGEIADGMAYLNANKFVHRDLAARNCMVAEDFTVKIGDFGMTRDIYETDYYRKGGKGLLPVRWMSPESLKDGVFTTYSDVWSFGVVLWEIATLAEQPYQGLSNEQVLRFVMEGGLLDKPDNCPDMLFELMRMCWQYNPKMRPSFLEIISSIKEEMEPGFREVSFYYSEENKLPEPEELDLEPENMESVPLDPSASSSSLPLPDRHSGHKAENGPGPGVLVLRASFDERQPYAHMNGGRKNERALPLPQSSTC

Compound	inhibition at 30 µM [1] [%]	inhibition at 10 µM [2] [%]	inhibition at 10 µM [3] [%]	inhibition at 10 µM [4] [%]	inhibition at 10 µM [5] [%]	MDA-MB-231, MTS cell kill % inhibition ([5]; 10 μM)	IGF-1R, PCT INH (30 μM), ELISA [1]	KATO III, MTS cell kill % inhibition ([2]; 10 μM)	NCI-H1299, MTS cell kill % inhibition ([3]; 10 μM)	DLD-1, MTS cell kill % inhibition ([4]; 10 μM)
O=C(NCCCN1CCOCC1)c1ccc2[nH]c(-c3ccc[nH]c3=O)c(-c3ccc4ncccc4c3)c2c1 [Compound 83, N-(3-morpholin-4-ylpropyl)-2-(2-oxo-1,2-dihydropyridin-3-yl)-3-quinolin-6-yl-1H-indole-5-carboxamide]	80 to 100	80 to 100	80 to 100	80 to 100	80 to 100	–	–	–	–	–
O=C(NCCCN1CCOCC1)c1ccc2[nH]c(-c3ccc[nH]c3=O)c(-c3csc4ccccc34)c2c1 [Compound 74, 3-(1-benzothien3-yl)-N-(3-morpholin-4-ylpropyl)-2-(2-oxo-1,2-dihydropyridin-3-yl)-1H-indole-5-carboxamide]	80 to 100	80 to 100	50 to 79	50 to 79	50 to 79	–	–	–	–	–
COc1cccc(CCNC(=O)c2ccc3[nH]c(-c4ccc[nH]c4=O)c(-c4ccccc4)c3c2)c1OC [Compound 19, N-[2-(2,3-dimethoxyphenyl)ethyl]-2-(2-oxo-1,2-dihydropyridin-3-yl)-3-phenyl-1H-indole-5-carboxamide]	80 to 100	80 to 100	80 to 100	80 to 100	80 to 100	–	–	–	–	–
3-[3-biphenyl-4-yl-5-({[3- (dimethylamino)propyl](methyl) amino}methyl)-1H-indol-2- yl]pyridin-2(1H)-one [Compound 53]	–	–	–	–	–	A (A = 80-100% inhibition)	C (C = <50% inhibition)	A (A = 80-100% inhibition)	A (A = 80-100% inhibition)	A (A = 80-100% inhibition)
O=C(NCCCN1CCOCC1)c1ccc2[nH]c(-c3ccc[nH]c3=O)c(-c3ccc(Cl)cc3)c2c1 [Compound 69, 3-(4-chlorophenyl)-N-(3-morpholin-4-ylpropyl)-2-(2-oxo-1,2-dihydropyridin-3-yl)-1H-indole-5-carboxamide]	80 to 100	< 50	< 50	< 50	50 to 79	–	–	–	–	–
O=C(NCCCN1CCOCC1)c1ccc2[nH]c(-c3ccc[nH]c3=O)c(-c3ccc(F)c(Cl)c3)c2c1 [Compound 76, 3-(3-chloro-4-fluorophenyl)-N-(3-morpholin-4-ylpropyl)-2-(2-oxo-1,2-dihydropyridin-3-yl)-1H-indole-5-carboxamide]	< 50	80 to 100	80 to 100	80 to 100	80 to 100	–	–	–	–	–
O=C(NCCOc1ccccc1)c1ccc2[nH]c(-c3ccc[nH]c3=O)c(-c3ccccc3)c2c1 [Compound 31, 2-(2-oxo-1,2-dihydropyridin-3-yl)-N-(2-phenoxyethyl)-3-phenyl-1H-indole-5-carboxamide]	80 to 100	80 to 100	80 to 100	50 to 79	< 50	–	–	–	–	–
COc1ccc(C(C)C)cc1-c1c(-c2ccc[nH]c2=O)[nH]c2ccc(C(=O)NCCCN3CCOCC3)cc12 [Compound 64, 3-(5-isopropyl-2-methoxyphenyl)-N-(3-morpholin-4-ylpropyl)-2-(2-oxo-1,2-dihydropyridin-3-yl)-1H-indole-5-carboxamide]	80 to 100	< 50	< 50	< 50	< 50	–	–	–	–	–
Cc1ccc(-c2c(-c3ccc[nH]c3=O)[nH]c3ccc(C(=O)NCCCN4CCOCC4)cc23)cc1F [Compound 67, 3-(3-fluoro-4-methylphenyl)-N-(3-morpholin-4-ylpropyl)-2-(2-oxo-1,2-dihydropyridin-3-yl)-1H-indole-5-carboxamide]	80 to 100	80 to 100	80 to 100	50 to 79	50 to 79	–	–	–	–	–
COc1ccc(-c2c(-c3ccc[nH]c3=O)[nH]c3ccc(C(=O)NCCCN4CCOCC4)cc23)c(OC)c1 [Compound 81, 3-(2,4-dimethoxyphenyl)-N-(3-morpholin-4-ylpropyl)-2-(2-oxo-1,2-dihydropyridin-3-yl)-1H-indole-5-carboxamide]	80 to 100	< 50	< 50	< 50	–	–	–	–	–	–
O=C(NCc1ccc(F)cc1F)c1ccc2[nH]c(-c3ccc[nH]c3=O)c(-c3ccc(-c4ccccc4)cc3)c2c1 [Compound 34, 3-biphenyl-4-yl-N-(2,4-difluorobenzyl)-2-(2-oxo-1,2-dihydropyridin-3-yl)-1H-indole-5-carboxamide]	–	80 to 100	50 to 79	50 to 79	50 to 79	–	–	–	–	–
CN(C)CCCNC(=O)c1ccc2[nH]c(-c3ccc[nH]c3=O)c(-c3ccc(-c4ccccc4)cc3)c2c1 [Compound 49, 3-biphenyl-4-yl-N-[3-(dimethylamino)propyl]-2-(2-oxo-1,2-dihydropyridin-3-yl)-1H-indole-5-carboxamide]	–	80 to 100	80 to 100	80 to 100	80 to 100	–	–	–	–	–

More lines, main results first:

inhibition at 30 µM [1] [%]	Compound	inhibition at 10 µM [2] [%]	inhibition at 10 µM [3] [%]	inhibition at 10 µM [4] [%]	inhibition at 10 µM [5] [%]	MDA-MB-231, MTS cell kill % inhibition ([5]; 10 μM)	IGF-1R, PCT INH (30 μM), ELISA [1]	KATO III, MTS cell kill % inhibition ([2]; 10 μM)	NCI-H1299, MTS cell kill % inhibition ([3]; 10 μM)	DLD-1, MTS cell kill % inhibition ([4]; 10 μM)
< 50	COc1cc2c(cc1OC)CN(C(=O)c1ccc3[nH]c(-c4ccc[nH]c4=O)c(-c4ccccc4)c3c1)CC2 [Compound 21, 3-{5-[(6,7-dimethoxy-3,4-dihydroisoquinolin-2(1H)-yl)carbonyl]-3-phenyl-1H-indol-2-yl}pyridin-2(1H)-one]	80 to 100	80 to 100	50 to 79	–	–	–	–	–	–
50 to 79	O=C(c1ccc2[nH]c(-c3ccc[nH]c3=O)c(-c3ccc(-c4ccccc4)cc3)c2c1)N1CCN(Cc2ccccn2)CC1 [Compound 41, 3-(3-biphenyl-4-yl-5-{[4-(pyridin-2-ylmethyl)piperazin-1-yl]carbonyl}-1H-indol-2-yl)pyridin-2(1H)-one]	80 to 100	80 to 100	80 to 100	50 to 79	–	–	–	–	–
50 to 79	CCOC(=O)N1CCN(C(=O)c2ccc3[nH]c(-c4ccc[nH]c4=O)c(-c4ccc(-c5ccccc5)cc4)c3c2)CC1 [Compound 44, ethyl 4-{[3-biphenyl-4-yl-2-(2-oxo-1,2-dihydropyridin-3-yl)-1H-indol-5-yl]carbonyl}piperazine-1-carboxylate]	80 to 100	80 to 100	50 to 79	80 to 100	–	–	–	–	–
80 to 100	O=C(c1ccc2[nH]c(-c3ccc[nH]c3=O)c(-c3ccccc3)c2c1)N1CCN(c2cnccn2)CC1 [Compound 25, 3-{3-phenyl-5-[(4-pyrazin-2-ylpiperazin-1-yl)carbonyl]-1H-indol-2-yl}pyridin-2(1H)-one]	80 to 100	50 to 79	50 to 79	–	–	–	–	–	–
80 to 100	CCOC(=O)N1CCN(C(=O)c2ccc3[nH]c(-c4ccc[nH]c4=O)c(-c4ccccc4)c3c2)CC1 [Compound 24, ethyl 4-{[2-(2-oxo-1,2-dihydropyridin-3-yl)-3-phenyl-1H-indol-5-yl]carbonyl}piperazine-1-carboxylate]	80 to 100	50 to 79	50 to 79	–	–	–	–	–	–
80 to 100	O=C(c1ccc2[nH]c(-c3ccc[nH]c3=O)c(-c3ccccc3)c2c1)N1CCN(c2ccccc2F)CC1 [Compound 14, 3-(5-{[4-(2-fluorophenyl)piperazin-1-yl]carbonyl) -3-phenyl-1H-indol-2-yl)pyridin-2(1H)-one]	80 to 100	50 to 79	50 to 79	–	–	–	–	–	–

From patent US8410144B2, “Substituted indolo-pyridinone compounds” (ArQule, Inc., priority 2009, dated 2013)
